The structures appear in SMILES notation. Converted amounts (≈) assume the structure as drawn. The source made the active and inactive calls. The rule behind the calls is not given here.

Data set [1] can be described thus: Cytotoxicity against human MRC5 cells assessed as reduction in cell viability incubated for 24 hrs by MTT assay. Type of data set: toxicity, cell-based. (Tetrazolium dyes change colour on reduction, which living cells bring about.)
Data set [2] concerns Staphylococcus aureus. Nature of the data set: Antibacterial activity against vancomycin-intermediate Staphylococcus aureus ATCC 700699 assessed as inhibition of bacterial growth incubated for 18 hrs by broth microdilution method. Type of data set: functional. On the technique in general: Broth dilution looks for growth in wells or tubes with falling amounts of substance.
Data set [3] has as its system Staphylococcus epidermidis. Kind of data set: Antibacterial activity against biofilm producer Staphylococcus epidermidis ATCC 35984 assessed as inhibition of bacterial growth incubated for 18 hrs by broth microdilution method. Type of data set: functional.
For data set [4], the system named is Staphylococcus epidermidis. Kind of data set: Antibacterial activity against linezolid-resistant Staphylococcus epidermidis NIL 4399/19 assessed as inhibition of bacterial growth incubated for 18 hrs by broth microdilution method. Type of data set: functional.
The test system of data set [5] is Klebsiella pneumoniae. Kind of data set: Antibacterial activity against Klebsiella pneumoniae ATCC 700603 assessed as inhibition of bacterial growth incubated for 18 hrs by broth microdilution method. Type of data set: functional.
Data set [6] concerns Streptococcus pneumoniae. Kind of data set: Antibacterial activity against Streptococcus pneumoniae ATCC 49619 assessed as inhibition of bacterial growth incubated for 18 hrs by broth microdilution method. Type of data set: functional.
Data set [7] has as its system Staphylococcus aureus. Nature of the data set: Antibacterial activity against biofilm producer Staphylococcus aureus RN450 assessed as inhibition of bacterial growth incubated for 18 hrs by broth microdilution method. Type of data set: functional.
For data set [8], the system named is Escherichia coli. Kind of data set: Antibacterial activity against Escherichia coli ATCC 25922 assessed as inhibition of bacterial growth incubated for 18 hrs by broth microdilution method. The data set is classed as functional.
The test system of data set [9] is Staphylococcus aureus. Nature of the data set: Antibacterial activity against methicillin-susceptible Staphylococcus aureus ATCC 25923 assessed as inhibition of bacterial growth incubated for 18 hrs by broth microdilution method. The data set is classed as functional.
Data set [10] deals with Staphylococcus aureus. Kind of data set: Antibacterial activity against methicillin-resistant Staphylococcus aureus clinical strain 19449 assessed as inhibition of bacterial growth incubated for 18 hrs by broth microdilution method. The data set is classed as functional.
Data set [11] in a line: Induction of hemolysis in horse RBC at 200 uM incubated for 1 hr. The data set is classed as toxicity, cell-based, Equus caballus, Erythrocyte. Particulars: horse red blood cells (erythrocytes), read-out: Activity.
Data set [12] deals with Pseudomonas aeruginosa. Nature of the data set: Antibacterial activity against Pseudomonas aeruginosa ATCC 27853 assessed as inhibition of bacterial growth incubated for 18 hrs by broth microdilution method. Type of data set: functional.
Data set [13] concerns Enterococcus faecium. Nature of the data set: Antibacterial activity against vancomycin-resistant Enterococcus faecium assessed as inhibition of bacterial growth incubated for 18 hrs by broth microdilution method. The data set is classed as functional.
Data set [14] deals with Staphylococcus epidermidis. Nature of the data set: Antibacterial activity against methicillin-susceptible Staphylococcus epidermidis ATCC 12228 assessed as inhibition of bacterial growth incubated for 18 hrs by broth microdilution method. Type of data set: functional.
In data set [15] the test system is Enterococcus faecalis. Kind of data set: Antibacterial activity against Enterococcus faecalis ATCC 29212 assessed as inhibition of bacterial growth incubated for 18 hrs by broth microdilution method. The data set is classed as functional.
A short description of data set [16]: Cytotoxicity against human BJ cells assessed as reduction in cell viability incubated for 24 hrs by MTT assay. The data set is classed as toxicity, cell-based.
A short description of data set [17]: Cytotoxicity against human BJ cells assessed as cell viability at 25 ug/ml incubated for 24 hrs by MTT assay. Type of data set: toxicity, cell-based. The conditions noted are these: at 25 µg/mL, read-out: Activity.

With `O=C(Nc1cccc(Cl)c1)N[C@H]1CCN(CCC(Oc2ccc(Cl)cc2)c2ccccc2)C1` (some centres not stated), the IC50 at 24 h in [1] was found to be 3.12 µg/mL (≈ 6.45 µM); in data set [16], 6.25 µg/mL (≈ 12.9 µM). Further, the MIC in data set [2] was found to be 1.56 µg/mL (≈ 3.22 µM); in [3] it was 3.12 µg/mL (≈ 6.45 µM); in [4], 6.25 µg/mL (≈ 12.9 µM); in data set [6] it was 6.25 µg/mL (≈ 12.9 µM); in data set [7], 3.12 µg/mL (≈ 6.45 µM); in [9], 6.25 µg/mL (≈ 12.9 µM). Further, the MIC in [10] worked out at 6.25 µg/mL (≈ 12.9 µM); in data set [13], 3.12 µg/mL (≈ 6.45 µM); in data set [14] it was 1.56 µg/mL (≈ 3.22 µM); in [15], 3.12 µg/mL (≈ 6.45 µM). The outcome in data set [5], in data set [8] and in [12] was inactive. Besides, the hemolysis at 1 h, 200 µM in data set [11] was determined as 11%.

As to `O=C(Nc1cccc(Cl)c1)N[C@H]1CCN(CCC(Oc2cccc(Cl)c2)c2ccccc2)C1` (some centres not stated), the IC50 at 24 h in data set [1] amounted to 3.12 µg/mL (≈ 6.45 µM); in data set [16], 6.25 µg/mL (≈ 12.9 µM). The MIC in data set [2] worked out at 3.12 µg/mL (≈ 6.45 µM); in data set [3] it was 3.12 µg/mL (≈ 6.45 µM); in [4] it was 3.12 µg/mL (≈ 6.45 µM); in data set [6], 6.25 µg/mL (≈ 12.9 µM); in [7] it was 3.12 µg/mL (≈ 6.45 µM); in data set [9] it was 3.12 µg/mL (≈ 6.45 µM). Also, the MIC in data set [10] is 3.12 µg/mL (≈ 6.45 µM); in data set [13], 0.78 µg/mL (≈ 1.61 µM); in data set [14] it was 3.12 µg/mL (≈ 6.45 µM); in data set [15], 3.12 µg/mL (≈ 6.45 µM). Further, the outcome in data set [5], in [8] and in [12] was inactive. In data set [11], the hemolysis at 1 h, 200 µM was determined as 8%.

For the compound `O=C(Nc1cccc(Cl)c1)N[C@@H]1CCN(CCC(Oc2ccc(C(F)(F)F)cc2)c2ccccc2)C1` (some centres not stated), the IC50 at 24 h in data set [1] and in [16] was 3.12 µg/mL (≈ 6.03 µM) throughout. Besides, the MIC in [2] was determined as 3.12 µg/mL (≈ 6.03 µM); in [3], 1.56 µg/mL (≈ 3.01 µM); in data set [4], 3.12 µg/mL (≈ 6.03 µM); in data set [6], 6.25 µg/mL (≈ 12.1 µM); in data set [7] it was 1.56 µg/mL (≈ 3.01 µM); in [9] it was 3.12 µg/mL (≈ 6.03 µM). In addition, the MIC in data set [10] came to 3.12 µg/mL (≈ 6.03 µM); in data set [13], 1.56 µg/mL (≈ 3.01 µM); in data set [14] it was 3.12 µg/mL (≈ 6.03 µM); in data set [15], 3.12 µg/mL (≈ 6.03 µM). Further, the result in [5], in data set [8] and in [12] was inactive. The hemolysis at 1 h, 200 µM in data set [11] is 9%.

Turning to `O=C(Nc1cccc(Cl)c1)N[C@H]1CCN(CCC(Oc2ccc(C(F)(F)F)cc2)c2ccccc2)C1` (some centres not stated), the IC50 at 24 h was determined as 3.12 µg/mL (≈ 6.03 µM) in [1] and 6.25 µg/mL (≈ 12.1 µM) in data set [16]. For the same compound, the MIC in data set [2] came to 1.56 µg/mL (≈ 3.01 µM); in data set [3] it was 3.12 µg/mL (≈ 6.03 µM); in data set [4] it was 1.56 µg/mL (≈ 3.01 µM); in data set [6] it was 6.25 µg/mL (≈ 12.1 µM); in data set [7] it was 1.56 µg/mL (≈ 3.01 µM); in [9] it was 3.12 µg/mL (≈ 6.03 µM). Besides, the MIC in data set [10] is 3.12 µg/mL (≈ 6.03 µM); in [13], 0.78 µg/mL (≈ 1.51 µM); in [14], 1.56 µg/mL (≈ 3.01 µM); in [15] it was 3.12 µg/mL (≈ 6.03 µM). In addition, the outcome in [5], in data set [8] and in [12] was inactive. Moreover, the hemolysis at 1 h, 200 µM in data set [11] was determined as 10%.

With `O=C(Nc1cccc(Cl)c1)NC1CCN(CCC(Oc2cccc(Cl)c2)c2ccccc2)CC1` (racemic), the values for the IC50 at 24 h in data set [1] and in data set [16] were 6.25 µg/mL (≈ 12.5 µM) and greater than 25 µg/mL, respectively. Moreover, the MIC in data set [2] is 3.12 µg/mL (≈ 6.27 µM); in data set [3] it was 1.56 µg/mL (≈ 3.13 µM); in data set [4], 3.12 µg/mL (≈ 6.27 µM); in data set [6], 6.25 µg/mL (≈ 12.5 µM); in data set [7], 1.56 µg/mL (≈ 3.13 µM); in data set [9], 3.12 µg/mL (≈ 6.27 µM). Besides, the MIC is 3.12 µg/mL (≈ 6.27 µM) in data set [10], 1.56 µg/mL (≈ 3.13 µM) in [13], 3.12 µg/mL (≈ 6.27 µM) in data set [14] and 3.12 µg/mL (≈ 6.27 µM) in data set [15]. For the same compound, in data set [17], the viability at 24 h, 25 ug/ml came out at 91%. The result in data set [5], in data set [8] and in data set [12] was inactive. The hemolysis at 1 h, 200 µM in data set [11] was less than 1%.

With `O=C(NCC1CCN(CCC(Oc2cccc(Cl)c2)c2ccccc2)CC1)Nc1cccc(Cl)c1` (racemic), the IC50 at 24 h was found to be 3.12 µg/mL (≈ 6.1 µM) in data set [1] and 6.25 µg/mL (≈ 12.2 µM) in [16]. The MIC in [2] is 3.12 µg/mL (≈ 6.1 µM); in [3] it was 3.12 µg/mL (≈ 6.1 µM); in data set [4], 6.25 µg/mL (≈ 12.2 µM); in data set [6], 6.25 µg/mL (≈ 12.2 µM); in data set [7], 3.12 µg/mL (≈ 6.1 µM); in data set [9], 6.25 µg/mL (≈ 12.2 µM). The MIC in [10] was found to be 6.25 µg/mL (≈ 12.2 µM); in data set [13], 1.56 µg/mL (≈ 3.04 µM); in [14], 1.56 µg/mL (≈ 3.04 µM); in [15], 3.12 µg/mL (≈ 6.1 µM). Further, the outcome in data set [5], in data set [8] and in data set [12] was inactive. The hemolysis at 1 h, 200 µM in data set [11] was 6%.

Usually IC50 stands for the concentration needed to halve the response being measured.

For the origin of these results see ChEMBL document CHEMBL5346933, “Design and synthesis of novel arylurea derivatives of aryloxy(1-phenylpropyl) alicyclic diamines with antimicrobial activity against multidrug-resistant Gram-positive bacteria” (Eur J Med Chem, 2023).
